Consider 20 compounds from ChEMBL document CHEMBL1132068, “A new class of anti-HIV agents: synthesis and activity of conjugates of HIV protease inhibitors with a reverse transcriptase inhibitor” (Bioorg Med Chem Lett, 1999).

pEC50: −log10 of the molar value.

In test [1] the target is Human immunodeficiency virus type 1 protease (Human immunodeficiency virus 1) (UniProt Q72874). The test can be described thus: Inhibitory activity against HIV protease at a concentration of 50 uM.
The target is the same in test [2]. The test is described as follows: Inhibitory activity against HIV protease at a concentration of 5 uM.
Test [3] deals with MT4. The test can be described thus: Inhibitory activity against HIV-1 IIIB in MT-4 infected cells. The format is functional, cell-based. To be noted: Homo sapiens.
For test [4], the system named is CEM-SS. The test is described as follows: Inhibitory activity against HIV-1 IIIB in CEM-SS infected cells. The format is functional, cell-based. To be noted: Homo sapiens.
The subject of test [5] is CEM-SS. The test can be described thus: Inhibitory activity against HIV-1 IIIB in CEM-SS infected cells relative to AZT. Type of test: functional, Homo sapiens.
Test [6] has as its system CEM-SS. The test can be described thus: Inhibitory activity against HIV-1 IIIB in CEM-SS infected cells; In active. Type of test: functional, cell-based, Homo sapiens.
Test [7] relates to CEM-SS. The test can be described thus: Inhibitory activity against HIV-1 IIIB in CEM-SS infected cells (Experiment 2). Type of test: functional, cell-based. To be noted: Homo sapiens.

Consider `CC(C(=O)O)C(C)C(=O)N[C@@H](Cc1ccccc1)[C@H](O)C(=O)N1CSC[C@H]1C(=O)NC(C)(C)C` (stereo partly drawn), for which the inhibition (as a rule, the share of the control response that was lost under treatment) in test [1] came out at 32%; in test [2] it was 97%. Further, the pEC50 (in general, the EC50 on a negative log10 scale, so that one unit is a factor of ten) in test [3] is < 2.70.

In turn, `Cc1cn(C2CC(N=[N+]=[N-])C(COC(=O)C(C)C(C)C(=O)N[C@@H](Cc3ccccc3)[C@H](O)C(=O)N3CSC[C@H]3C(=O)NC(C)(C)C)O2)c(=O)[nH]c1=O` (stereo partly drawn) showed a pEC50 in test [4] of 7.57. The compound further yielded an inhibition in test [2] of 29%. In test [5], the “Relative Potency” value was determined as 4.7.

For `Cc1ccccc1CNC(=O)[C@H]1N(C(=O)[C@@H](O)[C@H](Cc2ccccc2)NC(=O)C(C)C(C)C(=O)OCC2OC(n3cc(C)c(=O)[nH]c3=O)CC2N=[N+]=[N-])CSC1(C)C` (stereo partly drawn), the negative-log EC50 (pEC50) in test [4] is 8.14. Further, the inhibition in test [1] worked out at 39%; in test [2], 96%. The “Relative Potency” value in test [5] was determined as 1.5.

Regarding `CSC[C@H](NC(=O)COc1cccc2cnccc12)C(=O)N[C@@H](Cc1ccccc1)[C@H](O)C(=O)N1CSC[C@H]1C(=O)NC(C)(C)C`, the pEC50 in test [4] is 7.40; in test [3] it was 9.24. The inhibition in test [2] was determined as 100%.

Consider `CC(C)(C)NC(=O)[C@@H]1CSCN1C(=O)[C@@H](O)[C@H](Cc1ccccc1)NC(=O)CC(C)(C)C(=O)O`, for which the inhibition in test [1] stood at 20%; in test [2], 93%. For the same compound, the negative-log EC50 (pEC50) in test [3] is < 2.70.

In turn, `Cc1cn(C2CC(N=[N+]=[N-])C(COC(=O)C(C)(C)CC(=O)N[C@@H](Cc3ccccc3)[C@H](O)C(=O)N3CSC(C)(C)[C@H]3C(=O)NC(C)(C)C)O2)c(=O)[nH]c1=O` (stereo partly drawn) showed a pEC50 in test [4] of 7.72. Also, the inhibition in test [2] was found to be 41%. Moreover, in test [5], the “Relative Potency” value is 6.6.

The compound `Cc1ccccc1CNC(=O)[C@@H]1CSCN1C(=O)[C@@H](O)[C@H](Cc1ccccc1)NC(=O)C(C)C(C)C(=O)OCC1OC(n2cc(C)c(=O)[nH]c2=O)CC1N=[N+]=[N-]` (stereo partly drawn) gave a negative-log EC50 (pEC50) in test [4] of 8.05. Besides, the inhibition in test [2] was found to be 57%. Moreover, in test [5], the “Relative Potency” value is recorded as 1.2.

As to `Cc1ccccc1CNC(=O)[C@H]1N(C(=O)[C@@H](O)[C@H](Cc2ccccc2)NC(=O)C(C)C(C)C(=O)O)CSC1(C)C` (stereo partly drawn), the values for the inhibition in test [1] and in test [2] were 76% and 100%, respectively.

For the compound `Cc1cn(C2CC(N=[N+]=[N-])C(COC(=O)C(C)(C)CC(=O)N[C@@H](Cc3ccccc3)[C@H](O)C(=O)N3CSC[C@H]3C(=O)NC(C)(C)C)O2)c(=O)[nH]c1=O` (stereo partly drawn), the pEC50 in test [4] was 7.57. The inhibition in test [2] worked out at 9%. In addition, the “Relative Potency” value in test [5] is 4.7.

Compound `Cc1cn(C2CC(N=[N+]=[N-])C(COC(=O)C(C)C(C)C(=O)N[C@@H](Cc3ccccc3)[C@H](O)C(=O)N3CSC(C)(C)[C@H]3C(=O)NC(C)(C)C)O2)c(=O)[nH]c1=O` (stereo partly drawn) had a pEC50 in test [4] of 7.05. Also, the inhibition in test [2] came out at 69%. Also, the “Relative Potency” value in test [5] is on record as 1.4.

Take `Cc1ccccc1CNC(=O)[C@@H]1CSCN1C(=O)[C@@H](O)[C@H](Cc1ccccc1)NC(=O)C(C)C(C)C(=O)O` (stereo partly drawn): the inhibition in test [2] was found to be 88%.

In test [4], `Cc1cn(C2CC(N=[N+]=[N-])C(COC(=O)CCC(=O)N[C@@H](Cc3ccccc3)[C@H](O)C(=O)N3CSC[C@H]3C(=O)NC(C)(C)C)O2)c(=O)[nH]c1=O` (stereo partly drawn) had a pEC50 of 7.38. Besides, in test [2], the inhibition came out at 14%. Moreover, the “Relative Potency” value in test [5] is reported as 3.

Regarding `Cc1ccccc1CNC(=O)[C@H]1N(C(=O)[C@@H](O)[C@H](Cc2ccccc2)NC(=O)CC(C)(C)C(=O)O)CSC1(C)C`, the inhibition was 78% in test [1] and 100% in test [2]. Also, the EC50 result in test [6] was “Not Active”.

Regarding `CC(C)(C)NC(=O)[C@@H]1CSCN1C(=O)[C@@H](O)[C@H](Cc1ccccc1)NC(=O)CCC(=O)O`, the inhibition in test [2] worked out at 74%.

In test [4], `Cc1ccccc1CNC(=O)[C@H]1N(C(=O)[C@@H](O)[C@H](Cc2ccccc2)NC(=O)CC(C)(C)C(=O)OCC2OC(n3cc(C)c(=O)[nH]c3=O)CC2N=[N+]=[N-])CSC1(C)C` (stereo partly drawn) gave a pEC50 of 9.62. In test [2], the inhibition amounted to 83%. Further, in test [5], the “Relative Potency” value was 46.

For the compound `CC(C)(C)NC(=O)[C@H]1N(C(=O)[C@@H](O)[C@H](Cc2ccccc2)NC(=O)CC(C)(C)C(=O)O)CSC1(C)C`, the inhibition in test [1] was 76%; in test [2], 99%. The same compound showed a negative-log EC50 (pEC50) in test [3] of 4.28.

For the compound `Cc1ccccc1CNC(=O)[C@@H]1CSCN1C(=O)[C@@H](O)[C@H](Cc1ccccc1)NC(=O)CC(C)(C)C(=O)OCC1OC(n2cc(C)c(=O)[nH]c2=O)CC1N=[N+]=[N-]` (stereo partly drawn), in test [4], the pEC50 was 8.42. The inhibition in test [2] was 11%. Further, the “Relative Potency” value in test [5] came out at 2.9.

In the case of `Cc1ccccc1CNC(=O)[C@@H]1CSCN1C(=O)[C@@H](O)[C@H](Cc1ccccc1)NC(=O)CC(C)(C)C(=O)O`, the inhibition in test [2] was 87%.

Regarding `CC(C(=O)O)C(C)C(=O)N[C@@H](Cc1ccccc1)[C@H](O)C(=O)N1CSC(C)(C)[C@H]1C(=O)NC(C)(C)C` (stereo partly drawn), the inhibition in test [1] stood at 78%; in test [2], 99%. Moreover, the negative-log EC50 (pEC50) in test [3] was 3.65.

With `Cc1cn([C@H]2C[C@H](N=[N+]=[N-])[C@@H](CO)O2)c(=O)[nH]c1=O` [ZIDOVUDINE], the “Relative Potency” value in test [5] is 1. This compound also showed a pEC50 in test [7] of 7.96.
